Assay [1] can be described thus: Inhibition of bovine liver beta-galactosidase. On the set-up: species or system Bos taurus.
Assay [2] addresses Sucrase-isomaltase, intestinal (Rattus norvegicus) (UniProt P23739). Particulars: Wistar, 1000 uM.
Description: Inhibition of Wistar rat intestinal sucrase at 1000 uM
Assay [3] is described as follows: Inhibition of yeast alpha-glucosidase. On the set-up: species or system Saccharomyces cerevisiae.
Assay [4] can be described thus: Inhibition of rice alpha-glucosidase. Further details: species or system Oryza sativa.
Assay [5] in a line: Inhibition of Caldocellum saccharolyticum beta-glucosidase. On the set-up: species or system Caldicellulosiruptor saccharolyticus.
Assay [6] is described as follows: Inhibition of almond beta-glucosidase. Further details: species or system Prunus dulcis.
Assay [7] concerns the target Lactase/phlorizin hydrolase (Rattus norvegicus, UniProt Q02401). Put plainly: Inhibition of Wistar rat intestinal lactase.
Assay [8] is described as follows: Inhibition of Wistar rat intestinal alpha alpha-trehalase.
The target of assay [9] is Sucrase-isomaltase, intestinal (Rattus norvegicus) (UniProt P23739). Particulars: Wistar, 1000 uM. This is another data set of the same source.
Description: Inhibition of Wistar rat intestinal isomaltase at 1000 uM
Assay [10] has as its target T1, Uncharacterized protein (Sus scrofa) (UniProt I3LIR5).
T1 sequence (whole entry): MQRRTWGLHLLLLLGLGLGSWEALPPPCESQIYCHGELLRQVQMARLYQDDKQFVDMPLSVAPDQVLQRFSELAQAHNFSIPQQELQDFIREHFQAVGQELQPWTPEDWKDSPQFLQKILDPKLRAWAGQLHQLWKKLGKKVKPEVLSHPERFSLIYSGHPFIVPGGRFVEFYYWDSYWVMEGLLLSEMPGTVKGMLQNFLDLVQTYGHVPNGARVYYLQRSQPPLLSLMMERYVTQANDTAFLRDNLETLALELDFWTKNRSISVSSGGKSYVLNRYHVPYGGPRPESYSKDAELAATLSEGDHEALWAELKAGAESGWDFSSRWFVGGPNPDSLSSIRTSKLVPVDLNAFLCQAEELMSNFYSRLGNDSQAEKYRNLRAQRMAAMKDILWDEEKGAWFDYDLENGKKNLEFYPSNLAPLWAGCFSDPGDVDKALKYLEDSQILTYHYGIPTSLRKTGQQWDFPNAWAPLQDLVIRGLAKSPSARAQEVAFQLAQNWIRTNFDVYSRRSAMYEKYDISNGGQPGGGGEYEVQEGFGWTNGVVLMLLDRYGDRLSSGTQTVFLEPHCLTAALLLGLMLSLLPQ
The following applies: 1000 uM.
Description: Inhibition of pig kidney alpha alpha-trehalase at 1000 uM

Assay [11] has as its target Sucrase-isomaltase, intestinal (Rattus norvegicus, UniProt P23739). Put plainly: Inhibition of Wistar rat intestinal sucrase.
In a further assay the target is T2, Uncharacterized protein (Sus scrofa, UniProt I3LIR5).
T2 sequence (I3LIR5 whole entry): T1 sequence (whole entry)
Put plainly: Inhibition of pig kidney alpha alpha-trehalase.

For assay [12], the target named is Lysosomal alpha-glucosidase (Rattus norvegicus) (UniProt Q6P7A9). Particulars: Wistar, 1000 uM.
Description: Inhibition of Wistar rat liver lysosomal alpha-glucosidase at 1000 uM
The species named for another assay is Bos taurus. Particulars: 1000 uM.
Assay [13] addresses T3, Tissue alpha-L-fucosidase (Bos taurus, UniProt Q2KIM0).
T3 sequence (Q2KIM0 whole entry): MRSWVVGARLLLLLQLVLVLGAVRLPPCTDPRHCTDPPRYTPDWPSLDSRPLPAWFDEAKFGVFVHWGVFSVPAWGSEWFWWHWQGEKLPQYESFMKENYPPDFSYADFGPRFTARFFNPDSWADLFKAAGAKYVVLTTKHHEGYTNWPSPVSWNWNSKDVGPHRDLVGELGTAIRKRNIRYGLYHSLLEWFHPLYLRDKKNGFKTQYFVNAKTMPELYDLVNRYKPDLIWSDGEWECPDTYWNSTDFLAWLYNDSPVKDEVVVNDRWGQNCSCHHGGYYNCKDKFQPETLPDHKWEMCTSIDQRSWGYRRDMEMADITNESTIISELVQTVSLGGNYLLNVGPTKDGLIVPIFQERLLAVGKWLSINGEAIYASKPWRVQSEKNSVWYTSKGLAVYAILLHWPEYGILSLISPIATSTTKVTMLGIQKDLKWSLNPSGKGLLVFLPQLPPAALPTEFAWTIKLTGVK
Put plainly: Inhibition of bovine epididymis alpha-L-fucosidase at 1000 uM.

The next assay has as its system Oryza sativa. Particulars: 1000 uM.
The species named for another assay is Rattus norvegicus. Particulars: Wistar, 1000 uM.
For assay [14], the system named is Caldicellulosiruptor saccharolyticus. Particulars: 1000 uM.
Description: Inhibition of Caldocellum saccharolyticum beta-glucosidase at 1000 uM
Assay [15] has as its target Lysosomal alpha-glucosidase (Rattus norvegicus) (UniProt Q6P7A9). Particulars: Wistar, 1000 uM. The source holds these as a separate data set.
Description: Inhibition of Wistar rat intestinal maltase at 1000 uM
In assay [16] the target is Lactase/phlorizin hydrolase (Rattus norvegicus) (UniProt Q02401). The following applies: Wistar, 1000 uM.
Description: Inhibition of Wistar rat intestinal lactase at 1000 uM

As usually defined, the IC50 is the point on the concentration scale where inhibition reaches its midpoint. A higher IC50 goes with weaker potency in that assay. As a reminder, the inhibition is the drop in the measured response relative to a control, in per cent. The term Ki denotes the equilibrium dissociation constant of an inhibitor or competing ligand from its target.

Sequence of Sucrase-isomaltase, intestinal (Rattus norvegicus) (P23739 1-1013 limits assumed): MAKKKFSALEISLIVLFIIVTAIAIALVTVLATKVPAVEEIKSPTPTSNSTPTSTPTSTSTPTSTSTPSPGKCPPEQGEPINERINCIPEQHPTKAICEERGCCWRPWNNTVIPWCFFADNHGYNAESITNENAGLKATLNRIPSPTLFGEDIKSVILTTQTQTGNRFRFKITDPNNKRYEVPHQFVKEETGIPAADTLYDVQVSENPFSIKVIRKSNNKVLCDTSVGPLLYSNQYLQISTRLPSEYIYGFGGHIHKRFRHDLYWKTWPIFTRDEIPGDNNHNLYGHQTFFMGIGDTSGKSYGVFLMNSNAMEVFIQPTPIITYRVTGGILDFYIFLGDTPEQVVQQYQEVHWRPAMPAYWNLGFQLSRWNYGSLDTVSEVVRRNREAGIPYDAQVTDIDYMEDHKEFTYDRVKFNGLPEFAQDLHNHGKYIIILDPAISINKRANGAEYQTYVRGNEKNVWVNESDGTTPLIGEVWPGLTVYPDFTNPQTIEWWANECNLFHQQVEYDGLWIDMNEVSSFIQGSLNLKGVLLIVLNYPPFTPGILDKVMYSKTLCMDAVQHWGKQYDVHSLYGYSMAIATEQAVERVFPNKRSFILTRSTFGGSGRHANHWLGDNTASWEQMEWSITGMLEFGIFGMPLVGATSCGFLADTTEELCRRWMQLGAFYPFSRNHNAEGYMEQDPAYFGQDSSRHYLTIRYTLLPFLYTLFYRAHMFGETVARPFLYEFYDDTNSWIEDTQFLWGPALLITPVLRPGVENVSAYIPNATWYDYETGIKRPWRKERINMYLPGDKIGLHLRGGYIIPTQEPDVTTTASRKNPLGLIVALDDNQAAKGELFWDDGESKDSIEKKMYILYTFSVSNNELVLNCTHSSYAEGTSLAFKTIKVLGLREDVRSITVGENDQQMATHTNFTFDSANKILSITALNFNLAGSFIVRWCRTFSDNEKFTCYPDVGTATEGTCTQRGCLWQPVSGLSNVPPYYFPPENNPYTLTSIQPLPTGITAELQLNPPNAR
Sequence of Sucrase-isomaltase, intestinal (Rattus norvegicus) (P23739 1014-1841 limits assumed): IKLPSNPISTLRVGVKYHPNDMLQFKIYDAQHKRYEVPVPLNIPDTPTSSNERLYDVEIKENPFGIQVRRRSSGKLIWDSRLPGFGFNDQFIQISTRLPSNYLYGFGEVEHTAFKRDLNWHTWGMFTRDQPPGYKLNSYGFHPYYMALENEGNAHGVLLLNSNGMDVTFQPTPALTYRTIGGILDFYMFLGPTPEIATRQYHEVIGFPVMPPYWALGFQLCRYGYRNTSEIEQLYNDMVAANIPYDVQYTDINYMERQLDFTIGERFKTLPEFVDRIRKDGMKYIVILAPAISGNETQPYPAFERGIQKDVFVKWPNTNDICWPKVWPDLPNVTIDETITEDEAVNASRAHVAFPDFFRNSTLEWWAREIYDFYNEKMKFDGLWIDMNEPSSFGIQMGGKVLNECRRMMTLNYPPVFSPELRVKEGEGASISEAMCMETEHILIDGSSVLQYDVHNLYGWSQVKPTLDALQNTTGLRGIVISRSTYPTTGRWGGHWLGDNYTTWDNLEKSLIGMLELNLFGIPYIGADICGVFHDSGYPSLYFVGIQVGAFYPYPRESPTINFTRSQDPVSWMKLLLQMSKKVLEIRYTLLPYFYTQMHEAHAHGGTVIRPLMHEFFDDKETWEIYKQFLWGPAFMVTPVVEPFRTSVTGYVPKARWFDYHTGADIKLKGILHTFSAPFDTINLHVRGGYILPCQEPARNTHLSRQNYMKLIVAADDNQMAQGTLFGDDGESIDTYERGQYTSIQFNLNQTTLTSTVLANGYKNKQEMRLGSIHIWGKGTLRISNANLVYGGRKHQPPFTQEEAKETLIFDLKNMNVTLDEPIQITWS
Sequence of Lysosomal alpha-glucosidase (Rattus norvegicus) (Q6P7A9 whole entry): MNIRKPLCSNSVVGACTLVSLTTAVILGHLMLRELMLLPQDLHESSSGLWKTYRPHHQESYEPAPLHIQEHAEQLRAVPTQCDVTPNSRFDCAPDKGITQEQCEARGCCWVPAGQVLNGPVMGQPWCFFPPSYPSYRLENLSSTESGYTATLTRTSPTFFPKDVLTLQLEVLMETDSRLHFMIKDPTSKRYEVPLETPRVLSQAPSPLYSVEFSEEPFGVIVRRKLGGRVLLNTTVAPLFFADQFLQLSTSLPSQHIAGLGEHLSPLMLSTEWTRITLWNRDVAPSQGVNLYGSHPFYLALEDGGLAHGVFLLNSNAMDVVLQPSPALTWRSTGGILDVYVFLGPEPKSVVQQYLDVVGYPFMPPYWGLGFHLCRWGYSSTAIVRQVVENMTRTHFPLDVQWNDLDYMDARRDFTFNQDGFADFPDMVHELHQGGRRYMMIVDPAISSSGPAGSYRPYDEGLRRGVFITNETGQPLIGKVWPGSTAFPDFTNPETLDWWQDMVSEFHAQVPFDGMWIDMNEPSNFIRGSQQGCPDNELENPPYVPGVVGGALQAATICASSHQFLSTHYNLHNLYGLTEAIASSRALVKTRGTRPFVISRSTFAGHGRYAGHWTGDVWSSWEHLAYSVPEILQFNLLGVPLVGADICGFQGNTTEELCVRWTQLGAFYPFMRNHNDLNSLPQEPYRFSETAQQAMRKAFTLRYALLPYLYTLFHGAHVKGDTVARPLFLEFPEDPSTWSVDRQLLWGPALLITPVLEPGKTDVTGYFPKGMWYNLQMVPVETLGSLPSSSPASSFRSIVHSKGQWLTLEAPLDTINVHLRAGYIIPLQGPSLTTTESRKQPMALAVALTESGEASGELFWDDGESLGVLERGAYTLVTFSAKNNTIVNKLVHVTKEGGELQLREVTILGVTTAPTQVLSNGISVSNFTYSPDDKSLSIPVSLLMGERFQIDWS
Sequence of Sucrase-isomaltase, intestinal (P23739 1-1013 limits assumed): as the sequence (P23739 1-1013 limits assumed) above
Sequence of Sucrase-isomaltase, intestinal (P23739 1014-1841 limits assumed): as the sequence (P23739 1014-1841 limits assumed) above
Sequence of Lactase/phlorizin hydrolase (Q02401 868-1928 limits assumed): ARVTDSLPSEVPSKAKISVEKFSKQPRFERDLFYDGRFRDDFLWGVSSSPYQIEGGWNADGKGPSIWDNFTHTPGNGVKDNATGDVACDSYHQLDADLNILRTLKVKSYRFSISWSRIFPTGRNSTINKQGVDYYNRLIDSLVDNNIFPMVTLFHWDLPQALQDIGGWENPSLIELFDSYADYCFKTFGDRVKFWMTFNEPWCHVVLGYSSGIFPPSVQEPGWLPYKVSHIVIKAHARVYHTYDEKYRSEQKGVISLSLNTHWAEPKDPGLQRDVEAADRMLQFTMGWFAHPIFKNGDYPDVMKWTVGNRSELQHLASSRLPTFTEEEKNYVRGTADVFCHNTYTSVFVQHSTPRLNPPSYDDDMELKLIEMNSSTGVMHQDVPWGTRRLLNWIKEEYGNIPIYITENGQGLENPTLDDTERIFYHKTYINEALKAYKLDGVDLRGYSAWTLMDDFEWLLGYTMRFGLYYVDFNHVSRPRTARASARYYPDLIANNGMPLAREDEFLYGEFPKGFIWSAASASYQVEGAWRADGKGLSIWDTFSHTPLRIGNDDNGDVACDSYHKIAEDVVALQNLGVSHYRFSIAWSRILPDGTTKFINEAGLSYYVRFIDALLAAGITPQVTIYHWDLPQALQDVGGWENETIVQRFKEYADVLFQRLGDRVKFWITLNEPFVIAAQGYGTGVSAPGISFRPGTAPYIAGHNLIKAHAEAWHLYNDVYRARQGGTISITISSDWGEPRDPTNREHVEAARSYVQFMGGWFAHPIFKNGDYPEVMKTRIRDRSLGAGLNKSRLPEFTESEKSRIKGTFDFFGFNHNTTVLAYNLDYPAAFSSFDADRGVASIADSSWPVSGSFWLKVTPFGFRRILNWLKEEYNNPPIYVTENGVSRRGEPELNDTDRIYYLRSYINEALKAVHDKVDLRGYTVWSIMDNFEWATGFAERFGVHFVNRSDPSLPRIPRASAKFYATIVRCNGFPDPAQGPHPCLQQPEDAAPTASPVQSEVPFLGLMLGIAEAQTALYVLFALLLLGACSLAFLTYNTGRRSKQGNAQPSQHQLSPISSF
Sequence of Lactase/phlorizin hydrolase (Rattus norvegicus) (Q02401 868-1928 limits assumed): as above
Description for Bos taurus: Inhibition of bovine liver beta-galactosidase at 1000 uM
Description for Oryza sativa: Inhibition of rice alpha-glucosidase at 1000 uM

With `OC[C@H]1N[C@H](CO)[C@@H](O)[C@@H]1O`, the IC50 in assay [1] was found to be 2.5 µM; in [4], 200 µM; in assay [5], 11 µM. This molecule showed an inhibition in assay [2] of less than 50%. Moreover, the Ki worked out at 7 µM in [3] and 10 µM in [6].
As for `OCC[C@H]1N[C@H](CO)[C@@H](O)[C@@H]1O`, the IC50 in assay [7] amounted to 320 µM; in [1] it was 60 µM; in [8], 380 µM; in assay [4], 2.2 µM; in [5], 380 µM; in [11], 11 µM. In addition, the inhibition in [9] and in assay [10] was less than 50% in each case.
Take `OCC(O)[C@H]1N[C@H](CO)[C@@H](O)[C@@H]1O` (mixture of isomers): the IC50 at Uncharacterized protein was determined as 5 µM; in [7], 4 µM; in assay [1], 4.4 µM; in assay [8], 2 µM; in [4], 130 µM; in assay [5], 3.8 µM. This molecule also gave an IC50 in [11] of 300 µM. The inhibition in [12] and in [9] was less than 50% each time. The Ki was determined as 54 µM in [3] and 1.5 µM in [6].
With `OCC[C@H]1N[C@@H](CO)[C@H](O)[C@H]1O`, the inhibition (in the assay filed under Bos taurus; in assay [12]; in assay [2]; in the assay on Oryza sativa; in the assay listed under Rattus norvegicus; in assay [9]) was less than 50% throughout. Further, the inhibition in [10], in [14], in assay [15] and in assay [16] was less than 50% each time. Also, the IC50 in assay [13] amounted to 50 µM.

(Values after ChEMBL document CHEMBL1150882, “Nitrogen-containing furanose and pyranose analogues from Hyacinthus orientalis” (J Nat Prod, 1998).)
